# Patent US5183828A, “Polyhydroxybenzoic acid derivatives” (priority 1990, dated 1993)
# Columns and labels:
# [1] = system: superoxide (xanthine oxidase reaction or human leukocytes); test: effect on superoxide generation in vitro; format: biochemical
# Protocol: The rate of production of superoxide from the xanthine oxidase reaction or from human leukocytes activated with phorbol myristate acetate was measured spectrophotometrically as the superoxide dismutase (SOD)-inhibitable portion of the reduction of ferricytochrome c or nitroblue tetrazolium (NBT). All assays were carried out at 37° C., pH 7.1. For the superoxide production by the xanthine oxidase reaction, a concentration of 0.04 U/ml of xanthine oxidase was used with 0.1 mM xanthine as substrate. Absorbances were measured in the presence of 30 U/ml of SOD and in its absence. The indicators were either ferricytochrome c or NBT in a concentration of 20 uM. The initial rate of reduction of NBT was monitored at 530 nm and that of cytochrome c at 550 nm. Extinction coefficients were 21.4×10 ^3 /M cm for cytochrome c and 17.9×10^3 /M cm for NBT. The initial rate of production of superoxide from leukocytes was measured using a concentration of 20 uM ferricytochrome c or NBT as described above in the presence and absence of 30 U/ml of SOD.
# [2] = system: isolated rabbit hearts; test: contractile function in isolated Langendorff rabbit heart after global ischemia and reperfusion, Table 9; parameters: species or system New Zealand white rabbits; conditions: 30 min global ischemia, 45 min reperfusion; bolus of 10 mM solution then 100 uM over first min; control 49 ± 9 (p<0.01)
# Source text: The compounds of this invention, as represented by the above formula, are useful in treating ischemia reperfusion injury, presumably because of their free-radical scavenging ability. The following protocol illustrates this activity on the ischemia produced during treatment of coronary artery disease.
# (§1) Female New Zealand white rabbits (2 kg) were heparinized and anesthetized and their hearts removed. The isolated rabbit hearts were perfused by the method of Langendorff at a constant pressure of 80 mm Hg with a Krebs-bicarbonate-buffered perfusate which was bubbled with 95% O2, 5 % CO2 gas. Chelex-treated perfusate was prepared by eluting the solution through a column of chelex 100 resin which was pre-equilibrated with 4 volumes of the perfusate solution. All perfusate solutions were routinely filtered through 0.8 um millipore filters prior to use. Heart rate and left ventricular developed pressure were measured using a fluid-filled balloon secured into the left ventrile. The balloon was connected to a Statham P23 DB pressure transducer via a hydraulic line and the transducer output amplified to a strip chart recorder. The ventricular volume was adjusted to achieve a left ventricular end disastolic pressure of 12 mmHg. During periods of global ischemia, the balloon was deflated and then reinflated 15 min after reflow. […]
# [3] = system: DMPO-OH and DMPO-R radical adducts in coronary effluent of reperfused rabbit hearts; test: EPR spin trapping (DMPO) on coronary effluent of reperfused rabbit hearts; parameters: species or system New Zealand white rabbits
# Protocol: as §1, with “recorder.” for “recorder. The ventricular volume was adjusted to achieve a left ventricular end disastolic pressure of 12 mmHg. During periods of global ischemia, the balloon was deflated and then reinflated 15 min after reflow.”
# EPR spectra were recorded in flat cells at room temperature with either Varian E-9 or Bruker-IBM ER 300 spectrometers operating at X-band using 100 kHz modulation frequency and with TE 104 or TM 110 cavities. The microwave frequency and magnetic field were precisely measured using a Hewlett Packard 5342A Microwave Frequency counter and Bruker ER 035M NMR Gaussmeter. […] Quantitation of the free radical signals was performed by comparing the double integral of the observed signal to that of a known concentration of the tempo free radical in aqueous solution. […]
compound,measurement,setting,value
"NC(=NO)c1cc(O)c(O)c(O)c1 [3,4,5-trihydroxybenzamidoxime]",Cytochrome C Reduction,[1]; 10 uM compound,4.73 nmol
same,NBT Reduction,[1]; 10 uM compound,5.35 nmol
same,Cytochrome C Reduction,[1]; 20 uM compound,4.56 nmol
same,NBT Reduction,[1]; 20 uM compound,5.06 nmol
same,Cytochrome C Reduction,[1]; 50 uM compound,5.38 nmol
same,NBT Reduction,[1]; 50 uM compound,2.55 nmol
same,Cytochrome C Reduction,[1]; 100 uM compound,6.06 nmol
same,NBT Reduction,[1]; 100 uM compound,1.14 nmol
same,Cytochrome C Reduction,[1]; 200 uM compound,6.50 nmol
same,NBT Reduction,[1]; 200 uM compound,0.81 nmol
same,Cytochrome C Reduction,[1]; 300 uM compound,6.25 nmol
same,NBT Reduction,[1]; 300 uM compound,0.71 nmol
same,Cytochrome C Reduction,[1]; 500 uM compound,5.81 nmol
same,NBT Reduction,[1]; 500 uM compound,0.87 nmol
same,Left ventricular developed pressure,[2],67±9 mm Hg
same,DMPO-OH and DMPO-R EPR signals upon reperfusion,"[3]; 40 mM DMPO, post-ischemic reperfusion with drug",not observed
same,new radical EPR signal on reperfusion with drug,[3]; with or without DMPO,appears as a single broad peak centered at 3480 G
